Measured values reported in patent publication US4407803A, “Antiinflammatory 1-(quinolinyl)-2-pyrazoline derivatives” (Abbott Laboratories, priority 1981, dated 1983).

How the values were obtained:
dermal Arthus reaction = assay: reverse passive Arthus assay in rats (dermal lesion); format: in vivo, Male Sprague-Dawley rats; details: 100 mg/kg, oral, 30 min before anti-B.S.A.; lesion measured at four hours
Experimental: Proc. 35, 774 (1976). Each compound was administered orally to a group of four animals.
The […] passive Arthus reaction test in rats is conducted as follows: Male Sprague-Dawley rats weighing approximately 130-160 g. are used, 4 rats per group. All animals are injected intravenously with 0.5 ml. 0.075% Bovine Serum Albumin (B.S.A.)+2% Evans Blue solution. Each rat then receives an oral dose of drug; one drug is administered per group.
Thirty minutes subsequent to drug dosing, each animal is injected intradermally with 0.05 ml. 1.44% Anti-B.S.A. into the dorsal skin. Four hours later the animals are sacrificed, the dorsal skin reflexed, and the lesion excised. Two perpendicular diameters of each lesion are measured. The average diameters of the lesions from the treated groups are compared with the average diameters from the control group to determine any drug effect.

carrageenin pleurisy = assay: modification of the carrageenin pleurisy assay (reduction in accumulation of exudate volume and leukocytes); format: in vivo; details: for % Inhibition Cells: leukocytes
From the text: The compounds of the present invention have anti-inflammatory activity and inhibitory effect against Type III hypersensitivity reaction. These compounds are useful for the therapy of rheumatoid arthritis, other inflammatory conditions, Type III hypersensitivity diseases and in diseases in which polymorphonuclear leukocytes accumulation contributes to the pathology. The anti-inflammatory activity of these compounds was established by using a modification of the carrageenin pleurisy assay described by Vinegar et al. Proc. Soc. Exp. Biol. Med. 143:711 (1973).

SMILES: N=C1CCN(c2ccc3ccccc3n2)N1 [1-(2'-quinolinyl)-3-iminopyrazolidine, 1-(2'-quinolinyl)-3-imino-pyrazolidine]
- % Inhibition of lesion of dermal Arthus reaction (dermal Arthus reaction): 72%

SMILES: N=C1CCN(c2cnc3ccccc3c2)N1 [1-(3'-quinolinyl)-3-iminopyrazolidine, 1-(3'-Quinolinyl)-3-iminopyrazolidine]
- % Inhibition Volume exudates (carrageenin pleurisy; Dose 60 (dose unit not given)): 86%
- % Inhibition Cells (carrageenin pleurisy; Dose 60 (dose unit not given)): 71%
- % Inhibition of lesion of dermal Arthus reaction (dermal Arthus reaction): 37%

SMILES: N=C1CCN(c2ccnc3cc(Cl)ccc23)N1 [1-(7'-chloro-4'-quinolinyl)-3-imino pyrazolidine]
- % Inhibition of lesion of dermal Arthus reaction (dermal Arthus reaction): 53%

SMILES: CCCCC1C(=O)N(c2ccccc2)N(c2ccccc2)C1=O [Phenylbutazone, reference compound]
- % Inhibition Volume exudates (carrageenin pleurisy; Dose 100 (dose unit not given)): 59%
- % Inhibition Cells (carrageenin pleurisy; Dose 100 (dose unit not given)): 13%
